# US12097262B2, “mTORC1 inhibitors” (THE REGENTS OF THE UNIVERSITY OF CALIFORNIA, priority 2014, dated 2024)
# Where two headings read alike, the source gives them in different places.
# Columns and labels:
# [1] = tested on: mTORC1 (pS6 S240/244, P-4EBP1); assay: Western blot analysis in SNU-449 cells (E1010); assay type: cell-based, human; conditions: 3 hours (FIG. 13B)
# Protocol: FIGS. 13A-13B. FIG. 13A: MCF-7 cells were treated for 4 hours with E1035 and M1071 before harvesting. FIG. 13B: SNU-449 cells were treated with 3 hours with E1010 before harvesting. Cells were lysed and blotted for the indicated proteins. M1071 has the narrowest concentration range between mTORC1 and mTORC2 inhibition. The concentration range between mTORC1 and mTORC2 inhibition widens for E1035.
# Cell Culture and Western Blot Analysis. Cells were grown in 6-well plates and treated with inhibitor at the indicated concentrations or with vehicle (0.1% DMSO). Treated cells were lysed, and lysates were resolved by SDS-PAGE, transferred to nitrocellulose and blotted. All antibodies were purchased from Cell Signaling Technology.
# [2] = tested on: SNU-398; assay: Cell viability assay (CellTiter-Glo), SNU-398; assay type: cell-based, human; conditions: for EC50: 72 h after compound treatment; for inhibition at 10 µM: read-out: % inhibition at 10 μM SNU-398, 10 μM
# Protocol: (§1) The cells were grown in appropriate medium (vender recommended) supplemented with 10% heat-inactivated fetal bovine serum (FBS), in tissue culture dishes placed in a humidified incubator maintained at 37° C. in an atmosphere of 5% CO2 and 95% air.
# (§2) Cell viability assay. Cells were seeded in a 96-multiwell plate at 3000-4000 cells per well in medium containing FBS and cells were incubated at 37° C. overnight. After 18-20 h, compounds in 10×DMSO solution (n=3) were added to the cells and were incubated for additional 3 days in a humidified incubator in an atmosphere of 5% CO2 and 95% air. After treatment of Cell Titer-Glo® luminescent cell viability assay reagent (Promega Corporation, Madison, WI USA), the luminescence value was recorded using SpectraMax M5 Multi-Mode Microplate Readers (Molecular Devices, LLC, Sunnyvale, CA USA). Concentration response curves were generated on GraphPad Prism (GraphPad Software, La Jolla, CA USA) by calculating the decrease in luminescence values in compound-treated samples relative to the DMSO controls.
# (§3) Anti-proliferative effects of compounds were evaluated in human colorectal cancer HCT-15 cells (mutation: KRAS, PIK3CA), human hepatocellular carcinoma SNU-449 (mutation: TP53, CDKN2A), SNU-398 (mutation: CTNNB 1), SNU-182 (mutation: TP53) and renal adenocarcinoma 786-O (mutation: VHL, PTEN, TP53, CDKN2A) in 72 h after compound treatment.
# [3] = tested on: 786-O; assay: Cell viability assay (CellTiter-Glo), 786-O; assay type: cell-based, human
# Protocol: as §1, §2, §3
# [4] = tested on: HCT-15; assay: Cell viability assay (CellTiter-Glo), HCT-15; assay type: cell-based, human; conditions: for EC50: 72 h after compound treatment
# Protocol: as §1, §2, §3
# [5] = tested on: SNU-182; assay: Cell viability assay (CellTiter-Glo), SNU-182; assay type: cell-based, human; conditions: for EC50: 72 h after compound treatment; for inhibition at 10 µM: read-out: % inhibition at 10 μM SNU-182, 10 μM
# Protocol: as §1, §2, §3
# [6] = tested on: mTORC1 and mTORC2 downstream signaling (pS6, p4E-BP1, pAkt S473); assay: Downstream signaling of mTOR by immunoblotting, dose dependence, HCT-15 and SNU-449 cells; assay type: cell-based, human; conditions: immunoblot at 3 h after compound treatment
# Protocol: Downstream signaling of mTOR was tested using an immunoblotting method at 3 h after compound treatment.
# [7] = tested on: SNU-449; assay: Cell viability assay (CellTiter-Glo), SNU-449; conditions: for EC50: read-out: EC50 (nM) SNU-449; for inhibition at 10 µM: SNU-449, read-out: % inhibition at 10 μM SNU-449
# Protocol: as §1, §2, §3
# [8] = biological target: mTOR (Homo sapiens, UniProt P42345); assay: Potency of the ASi mTOR inhibition; assay type: biochemical
# [9] = tested on: mTORC1 and mTORC2 signaling (pS6, p4E-BP1, pAkt S473); assay: Time-course effects on mTORC1 and mTORC2 signaling in SNU-449; assay type: cell-based, human; conditions: 0.33-24 h
# Protocol: Cellular Signaling Effects of Class mTOR Inhibitors. Cells were seeded in 60 mm cell culture dishes and incubated 1-2 days until 70-90% confluency. Cells were treated with compound solution in DMSO (1000×) and incubated at 37° C. in a 5% CO2 humidified incubator for a given length of time. Whole cell lysates were prepared using RIPA buffer (R^3792) (TEKnova, Hollister, CA USA) with a phosphatase inhibitor cocktail tablet PhosStop and a protease inhibitor cocktail tablet cOmplete Mini (Roche Diagnostics GmbH, Mannheim, Germany). Cell lysates (based on a certain amount of protein determined by Pierce BCA Protein Assay Kit (PI-23225) (Thermo Fisher Scientific Inc., Waltham, MA USA)) were electrophoresed using a Criterion Tris-HCl gel 4-20% (Bio-Rad Laboratories, Hercules, CA USA) and transferred to a nitrocellulose membrane (162-0115) (Bio-Rad Laboratories, Hercules, CA USA). After incubation for more than 1 h with a blocking buffer at room temperature, membranes were labeled with primary antibodies by overnight incubation at 4° C., followed by 1 hour incubation with horseradish peroxidase-conjugated (HRP-conjugated) secondary antibodies at room temperature. The following antibodies were used for immunoblot: phospho-Akt (S473) (#9271), phospho-Akt (T308) (#2965), total-Akt (#9272), phospho-S6 (Ser240/Ser244) (#2215L), S6 ribosomal protein (#2217), phospho-4E-BP1 (T37/T46) (#2855), total 4E-BP1 (#9644) (Cell Signaling Technology, Inc., Danvers, MA USA), FKBP12 (sc-28814) mouse β-actin (sc-8432) (Santa Cruz Biotechnology, Inc., Dallas, Texas USA), anti-rabbit IgG conjugated with horseradish peroxidase (HRP) (#7074), and anti-mouse IgG conjugated with HRP (#7076) (Cell Signaling Technology, Inc., Danvers, MA USA). Nitrocellulose membranes were exposed with SuperSignal® West Pico Chemiluminescent Substrate or Femto Maximum Sensitivity Substrate (Thermo Fisher Scientific Inc., Waltham, MA USA) and signals were recorded on a CL-Xposure film (Thermo Fisher Scientific Inc., Waltham, MA USA).
# [10] = tested on: TORC1 and TORC2 outputs (p4E-BP1, pS6); assay: Drug washout experiment in SNU-449 cells; assay type: cell-based, human; conditions: 30 nM for 3 h, then washout
# Protocol: Cellular Signaling Effects of Class mTOR Inhibitors. Cells were seeded in 60 mm cell culture dishes and incubated 1-2 days until 70-90% confluency. Cells were treated with compound solution in DMSO (1000×) and incubated at 37° C. in a 5% CO2 humidified incubator for a given length of time. […] After incubation for more than 1 h with a blocking buffer at room temperature, membranes were labeled with primary antibodies by overnight incubation at 4° C., followed by 1 hour incubation with horseradish peroxidase-conjugated (HRP-conjugated) secondary antibodies at room temperature. […] Nitrocellulose membranes were exposed with SuperSignal® West Pico Chemiluminescent Substrate or Femto Maximum Sensitivity Substrate (Thermo Fisher Scientific Inc., Waltham, MA USA) and signals were recorded on a CL-Xposure film (Thermo Fisher Scientific Inc., Waltham, MA USA).
# Drug Washout Experiment. SNU-449 cells were treated with 30 nM of compounds for 3 h. The medium was aspirated out and cells were washed with fresh 10% FBS in RPMI1640 medium. Then, cells were incubated with fresh 10% FBS in RPMI1640 medium at 37° C. for described time period.
# [11] = Effect on blood glucose level in mice; conditions: mice (n=3), intraperitoneal, Rapamycin treatment group (5 mg/kg, FIG. 10)
# Description: Effect on blood glucose level. […] Blood glucose levels (mg/dL) were monitored.
smiles,measurement,setting,value
COc1ccc2[nH]c(-c3nn(CCCCNC(=O)CCOCCOCCOCCOCCOCCOCCOCCOCCn4cc(COCCO[C@@H]5CC[C@@H](C[C@@H](C)[C@@H]6CC(=O)[C@H](C)/C=C(\C)[C@@H](O)[C@@H](OC)C(=O)[C@H](C)C[C@H](C)/C=C/C=C/C=C(\C)[C@@H](OC)C[C@@H]7CC[C@@H](C)[C@@](O)(O7)C(=O)C(=O)N7CCCC[C@H]7C(=O)O6)C[C@H]5OC)nn4)c4ncnc(N)c34)cc2c1 [Compound E1010],inhibition of P-4EBP1,[1],little or no inhibition
same,inhibition of pS6 (S240/244),[1],inhibition
same,mTORC1 inhibition,[1],only partially inhibits mTORC1
"COC1CC2CCC(C)C(O)(O2)C(=O)C(=O)N2CCCCC2C(=O)OC(C(C)CC2CCC(OCCOCc3cn(CCOCCOCCOCCOCCOCCOCCOCCNC(=O)CCCCn4nc(-c5ccc6oc(N)nc6c5)c5c(N)ncnc54)nn3)C(OC)C2)CC(=O)C(C)C=C(C)C(O)C(OC)C(=O)C(C)CC(C)C=CC=CC=C1C (stereo not shown) [Compound M-1111, 40-O-(2-((1-(29-(4-amino-3-(2-aminobenzo[d]oxazol-5-yl)-1H-pyrazolo[3,4-d]pyrimidin-1-yl)-25-oxo-3,6,9,12,15,18,21-heptaoxa-24-azanonacosyl)-1H-1,2,3-triazol-4-yl)methoxy)ethyl)-rapamycin]",% inhibition at 10 μM SNU-398,[2]; 10 μM,+++ (50% < +++ ≤ 100%)
same,EC50,[2],< 10 nM
same,% inhibition at 10 μM 786-O,[3]; 10 μM,+++ (50% < +++ ≤ 100%)
same,EC50,[3]; 72 h after compound treatment,10 to 50 nM
same,% inhibition at 10 μM HCT-15,[4]; 10 μM,+++ (50% < +++ ≤ 100%)
same,EC50,[4],10 to 50 nM
same,% inhibition at 10 μM SNU-182,[5]; 10 μM,++ (25% < ++ ≤ 50%)
same,EC50,[5],< 10 nM
same,"mTORC1/2 downstream inhibition (pS6, p4E-BP1 and pAkt S473)",[6],stronger inhibition of mTORC1 signaling (pS6 and p4E-BP1) compared to mTORC2 downstream Akt S473 phosphorylation
same,p4E-BP1 inhibition,[6],complete p4E-BP1 inhibition at drug concentrations in which pAkt S473 is not inhibited
same,% inhibition at 10 μM SNU-449,"[7]; 10 μM, SNU-449",++ (25% < ++ ≤ 50%)
same,EC50,"[7]; SNU-449, 72 h after compound treatment",< 10 nM
"CO[C@H]1C[C@@H]2CC[C@@H](C)[C@@](O)(O2)C(=O)C(=O)N2CCCC[C@H]2C(=O)O[C@H]([C@H](C)C[C@@H]2CC[C@@H](OCCOCc3cn(CCCCn4nc(-c5ccc6oc(N)nc6c5)c5c(N)ncnc54)nn3)[C@H](OC)C2)CC(=O)[C@H](C)/C=C(\C)[C@@H](O)[C@@H](OC)C(=O)[C@H](C)C[C@H](C)/C=C/C=C/C=C/1C [Compound M-1115, 40-O-(2-((1-(4-(4-amino-3-(2-aminobenzo[d]oxazol-5-yl)-^1H-pyrazolo[3,4-d]pyrimidin-1-yl)butyl)-1H-1,2,3-triazol-4-yl)methoxy)ethyl)-rapamycin]",EC50,[2]; Homo sapiens,10 to 50 nM
same,EC50,"[3]; Homo sapiens, 786-0, 72 h after compound treatment",> 100 nM
same,EC50,[4]; Homo sapiens,> 100 nM
same,EC50,[5]; Homo sapiens,10 to 50 nM
same,p4E-BP1 inhibition,[6],weaker p4E-BP1 inhibition
same,EC50,"[7]; Homo sapiens, SNU-449, 72 h",> 100 nM
"CO[C@H]1C[C@@H]2CC[C@@H](C)[C@@](O)(O2)C(=O)C(=O)N2CCCC[C@H]2C(=O)O[C@H]([C@H](C)C[C@@H]2CC[C@@H](OCCOCc3cn(CCOCCOCCOCCOCCC(=O)NCCCCn4nc(-c5ccc6oc(N)nc6c5)c5c(N)ncnc54)nn3)[C@H](OC)C2)CC(=O)[C@H](C)/C=C(\C)[C@@H](O)[C@@H](OC)C(=O)[C@H](C)C[C@H](C)/C=C/C=C/C=C/1C [Compound M-3059, 40-O-(2-((1-(20-(4-amino-3-(2-aminobenzo[d]oxazol-5-yl)-1H-pyrazolo[3,4-d]pyrimidin-1-yl)-15-oxo-3,6,9,12-tetraoxa-16-azaicosyl)-1H-1,2,3-triazol-4-yl)methoxy)ethyl)-rapamycin]",inhibition at 10 µM,[2]; Homo sapiens,50 to 100%
same,inhibition at 10 µM,[5]; Homo sapiens,< 25%
same,inhibition at 10 µM,[7]; Homo sapiens,< 25%
COc1ccc2[nH]c(-c3nn(C(C)C)c4ncnc(N)c34)cc2c1 [MeO-PP242],IC50,[8],> 10000 nM
"CO[C@H]1C[C@@H]2CC[C@@H](C)[C@@](O)(O2)C(=O)C(=O)N2CCCC[C@H]2C(=O)O[C@H]([C@H](C)C[C@@H]2CC[C@@H](O)[C@H](OC)C2)CC(=O)[C@H](C)/C=C(\C)[C@@H](O)[C@@H](OC)C(=O)[C@H](C)C[C@H](C)/C=C/C=C/C=C/1C [Rapamycin, (3 S,6R,7E,9R,10R,12R,14S,15E,17E,19E,21S,23 S,26R,27R,34aS)-9,10,12,13,14,21,22,23,24,25,26,27,32,33,34,34a-hexadecahydro-9,27-dihydroxy-3-[(1R)-2-[(1S,3R,4R)-4-hydroxy-3-methoxycyclohexyl]-1-methylethyl]-10,21-dimethoxy-6,8,12,14,20,26-hexamethyl-23,27-epoxy-3H-pyrido[2,1-c][1,4]-oxaazacyclohentriacontine-1,5,11,28,29(4H,6H,31H)-pentone, reference compound]",inhibition at 10 µM,[2]; Homo sapiens,25 to 50%
same,inhibition at 10 µM,"[3]; Homo sapiens, 786-0, read-out: % inhibition at 10 μM 786-O, 10 μM",< 25%
same,inhibition at 10 µM,"[4]; Homo sapiens, read-out: % inhibition at 10 μM HCT-15, 10 μM",25 to 50%
same,inhibition at 10 µM,[5]; Homo sapiens,< 25%
same,"p4E-BP1 inhibition, time course",[9],moderate inhibitory activity
same,"phosphorylation of Akt S473, time course",[9],"transient feedback activation on Akt S473 at 1 and 3 h, and then a slight inhibition was observed at 24 h"
same,maintenance of effects after washout,[10],maintained longer after washout compared to asTORi
same,blood glucose level,[11],no increase in blood glucose levels
same,inhibition at 10 µM,[7]; Homo sapiens,< 25%
